pIC50: −log10 of the molar value.
What was measured:
[1] = Inhibitory activity against Translocase I
Streptococcus pyogenes = test: Tested in vitro for antibacterial activity against Streptococcus pyogenes using micro-broth dilution method; format: functional
Escherichia coli = test: Tested in vitro for antibacterial activity against Escherichia coli using micro-broth dilution method; format: functional
Enterococcus faecium = test: Tested in vitro for antibacterial activity against Enterococcus faecium using micro-broth dilution method; format: functional
Staphylococcus aureus = test: Tested in vitro for antibacterial activity against Staphylococcus aureus using micro-broth dilution method; format: functional

pIC50 [1]	SMILES	also measured
5.47	NC[C@H]1O[C@@H](O[C@@H](CNCc2ccncc2)[C@@H]2C[C@@H](O)[C@H](n3ccc(=O)[nH]c3=O)O2)[C@H](O)[C@@H]1O	–
5.64	NC[C@H]1O[C@@H](O[C@@H](CNCc2cccs2)[C@@H]2C[C@@H](O)[C@H](n3ccc(=O)[nH]c3=O)O2)[C@H](O)[C@@H]1O	–
5.15	NC[C@H]1O[C@@H](O[C@@H](CNCCCN2CCCC2=O)[C@@H]2C[C@@H](O)[C@H](n3ccc(=O)[nH]c3=O)O2)[C@H](O)[C@@H]1O	–
5.72	NC[C@H]1O[C@@H](O[C@@H](CN2CCN(CC(=O)N3CCCC3)CC2)[C@@H]2C[C@@H](O)[C@H](n3ccc(=O)[nH]c3=O)O2)[C@H](O)[C@@H]1O	–
6.36	NC[C@H]1O[C@@H](O[C@@H](CNC(=O)c2ccc(Br)cc2)[C@@H]2C[C@@H](O)[C@H](n3ccc(=O)[nH]c3=O)O2)[C@H](O)[C@@H]1O	–
5.41	CN1CCCC1CCNC[C@H](O[C@@H]1O[C@H](CN)[C@@H](O)[C@H]1O)[C@@H]1C[C@@H](O)[C@H](n2ccc(=O)[nH]c2=O)O1 (some centres not stated)	–
6.46	NC[C@H]1O[C@@H](O[C@@H](CN2CCC(Cc3ccccc3)CC2)[C@@H]2C[C@@H](O)[C@H](n3ccc(=O)[nH]c3=O)O2)[C@H](O)[C@@H]1O	–
6.80	NC[C@H]1O[C@@H](O[C@@H](CNC(=O)Nc2ccc(C3CCCCC3)cc2)[C@@H]2C[C@@H](O)[C@H](n3ccc(=O)[nH]c3=O)O2)[C@H](O)[C@@H]1O	–
4.85	NC[C@H]1O[C@@H](O[C@@H](CNC(=O)c2ccccc2)[C@@H]2C[C@@H](O)[C@H](n3ccc(=O)[nH]c3=O)O2)[C@H](O)[C@@H]1O	–
5.19	NC[C@H]1O[C@@H](O[C@@H](CNCc2ccc(C(=O)O)cc2)[C@@H]2C[C@@H](O)[C@H](n3ccc(=O)[nH]c3=O)O2)[C@H](O)[C@@H]1O	–
5.74	CCN(CC)CCN1CCN(C[C@H](O[C@@H]2O[C@H](CN)[C@@H](O)[C@H]2O)[C@@H]2C[C@@H](O)[C@H](n3ccc(=O)[nH]c3=O)O2)CC1	–
6.13	CCCCCCCNC[C@H](O[C@@H]1O[C@H](CN)[C@@H](O)[C@H]1O)[C@@H]1C[C@@H](O)[C@H](n2ccc(=O)[nH]c2=O)O1	–
5.32	NC[C@H]1O[C@@H](O[C@@H](CNCc2cccnc2)[C@@H]2C[C@@H](O)[C@H](n3ccc(=O)[nH]c3=O)O2)[C@H](O)[C@@H]1O	–
6.41	NC[C@H]1O[C@@H](O[C@@H](CNC(=O)c2ccc(C3CCCCC3)cc2)[C@@H]2C[C@@H](O)[C@H](n3ccc(=O)[nH]c3=O)O2)[C@H](O)[C@@H]1O	–
5.89	CN1CCCC1CNC[C@H](O[C@@H]1O[C@H](CN)[C@@H](O)[C@H]1O)[C@@H]1C[C@@H](O)[C@H](n2ccc(=O)[nH]c2=O)O1 (some centres not stated)	–
5.36	COC(=O)C1CCN(C[C@H](O[C@@H]2O[C@H](CN)[C@@H](O)[C@H]2O)[C@@H]2C[C@@H](O)[C@H](n3ccc(=O)[nH]c3=O)O2)CC1	–
5.23	NC[C@H]1O[C@@H](O[C@@H](CN2CCCCC2)[C@@H]2C[C@@H](O)[C@H](n3ccc(=O)[nH]c3=O)O2)[C@H](O)[C@@H]1O	–
5.42	NC[C@H]1O[C@@H](O[C@@H](CNCCCN2CCOCC2)[C@@H]2C[C@@H](O)[C@H](n3ccc(=O)[nH]c3=O)O2)[C@H](O)[C@@H]1O	–
5.04	NC[C@H]1O[C@@H](O[C@@H](CNCC2CCCO2)[C@@H]2C[C@@H](O)[C@H](n3ccc(=O)[nH]c3=O)O2)[C@H](O)[C@@H]1O (some centres not stated)	–
5.16	CN(Cc1ccccc1)C[C@H](O[C@@H]1O[C@H](CN)[C@@H](O)[C@H]1O)[C@@H]1C[C@@H](O)[C@H](n2ccc(=O)[nH]c2=O)O1	–
6.74	NC[C@H]1O[C@@H](O[C@@H](CNc2ccc(C3CCCCC3)cc2)[C@@H]2C[C@@H](O)[C@H](n3ccc(=O)[nH]c3=O)O2)[C@H](O)[C@@H]1O	–
5.92	COC(=O)c1ccc(CNC[C@H](O[C@@H]2O[C@H](CN)[C@@H](O)[C@H]2O)[C@@H]2C[C@@H](O)[C@H](n3ccc(=O)[nH]c3=O)O2)cc1	–
5.42	NC[C@H]1O[C@@H](O[C@@H](CNCCCn2ccnc2)[C@@H]2C[C@@H](O)[C@H](n3ccc(=O)[nH]c3=O)O2)[C@H](O)[C@@H]1O	–

More lines, now with the values behind:

SMILES	pIC50 [1]	also measured
CC(=O)N[C@H]1[C@@H](O[C@@H]2O[C@H](CC(O)[C@H]3O[C@@H](n4ccc(=O)[nH]c4=O)[C@H](O)[C@@H]3O)[C@H](O)[C@H](O)[C@H]2NC(=O)/C=C/CC(C)C)O[C@H](CO)[C@@H](N)[C@@H]1O (some centres not stated) [TUNICAMYCIN]	6.32	–
CN(Cc1ccc(-c2ccccc2)cc1)C[C@H](O[C@@H]1O[C@H](CN)[C@@H](O)[C@H]1O)[C@@H]1C[C@@H](O)[C@H](n2ccc(=O)[nH]c2=O)O1	6.77	–
CCCCCCCCCCNC[C@H](O[C@@H]1O[C@H](CN)[C@@H](O)[C@H]1O)[C@@H]1C[C@@H](O)[C@H](n2ccc(=O)[nH]c2=O)O1.O=C(O)C(F)(F)F	6.48	MIC (Streptococcus pyogenes): 20 µg/mL; MIC (Escherichia coli): 40 µg/mL; MIC (Enterococcus faecium): 80 µg/mL; MIC (Staphylococcus aureus): 40 µg/mL
NC[C@H]1O[C@@H](O[C@@H](CNC(=O)Nc2ccc(Oc3ccccc3)cc2)[C@@H]2C[C@@H](O)[C@H](n3ccc(=O)[nH]c3=O)O2)[C@H](O)[C@@H]1O	6.85	–
CC(C)(C)c1ccc(CNC[C@H](O[C@@H]2O[C@H](CN)[C@@H](O)[C@H]2O)[C@@H]2C[C@@H](O)[C@H](n3ccc(=O)[nH]c3=O)O2)cc1	6.24	–
NC[C@H]1O[C@@H](O[C@@H](CNC(=O)c2cccc(Oc3ccccc3)c2)[C@@H]2C[C@@H](O)[C@H](n3ccc(=O)[nH]c3=O)O2)[C@H](O)[C@@H]1O	6.36	–
NC[C@H]1O[C@@H](O[C@@H](CNCC2COc3ccccc3O2)[C@@H]2C[C@@H](O)[C@H](n3ccc(=O)[nH]c3=O)O2)[C@H](O)[C@@H]1O (some centres not stated)	5.55	–
COc1ccc(CN(C)C[C@H](O[C@@H]2O[C@H](CN)[C@@H](O)[C@H]2O)[C@@H]2C[C@@H](O)[C@H](n3ccc(=O)[nH]c3=O)O2)cc1	5.85	–
Cc1ccc(CCNC[C@H](O[C@@H]2O[C@H](CN)[C@@H](O)[C@H]2O)[C@@H]2C[C@@H](O)[C@H](n3ccc(=O)[nH]c3=O)O2)cc1	6.21	–
NC[C@H]1O[C@@H](O[C@@H](CNc2ccc(Oc3ccccc3)cc2)[C@@H]2C[C@@H](O)[C@H](n3ccc(=O)[nH]c3=O)O2)[C@H](O)[C@@H]1O	6.70	–
NC[C@H]1O[C@@H](O[C@@H](CNCc2ccc(OC(F)(F)F)cc2)[C@@H]2C[C@@H](O)[C@H](n3ccc(=O)[nH]c3=O)O2)[C@H](O)[C@@H]1O	6.52	–
CSCC[C@H](NC(=O)N[C@@H](Cc1cccc(O)c1)C(=O)O)C(=O)NC(C(=O)N/C=C1\C[C@@H](O)[C@H](n2ccc(=O)[nH]c2=O)O1)[C@H](C)N(C)C(=O)[C@@H](N)Cc1cccc(O)c1 (some centres not stated)	7.19	–
NC[C@H]1O[C@@H](O[C@@H](CNC(=O)c2cccc(OC(F)(F)F)c2)[C@@H]2C[C@@H](O)[C@H](n3ccc(=O)[nH]c3=O)O2)[C@H](O)[C@@H]1O	6.00	–
NC[C@H]1O[C@@H](O[C@@H](CNC(=O)c2ccc(OCc3ccccc3)cc2)[C@@H]2C[C@@H](O)[C@H](n3ccc(=O)[nH]c3=O)O2)[C@H](O)[C@@H]1O	6.49	–
NC[C@H]1O[C@@H](OC[C@H]2O[C@@H](n3ccc(=O)[nH]c3=O)[C@H](O)[C@@H]2O)[C@H](O)[C@@H]1O	4.30	–
NC[C@H]1O[C@@H](O[C@@H](CNCCc2c[nH]c3ccccc23)[C@@H]2C[C@@H](O)[C@H](n3ccc(=O)[nH]c3=O)O2)[C@H](O)[C@@H]1O	5.54	–
NC[C@H]1O[C@@H](O[C@@H](CNCc2ccc(SC(F)(F)F)cc2)[C@@H]2C[C@@H](O)[C@H](n3ccc(=O)[nH]c3=O)O2)[C@H](O)[C@@H]1O	6.51	–
NC[C@H]1O[C@@H](O[C@@H](CNCCc2ccc(Cl)cc2)[C@@H]2C[C@@H](O)[C@H](n3ccc(=O)[nH]c3=O)O2)[C@H](O)[C@@H]1O	6.77	–
NC[C@H]1O[C@@H](O[C@@H](CNC(=O)Cc2ccc(-c3ccccc3)cc2)[C@@H]2C[C@@H](O)[C@H](n3ccc(=O)[nH]c3=O)O2)[C@H](O)[C@@H]1O	6.37	–
NC[C@H]1O[C@@H](O[C@@H](CNCCc2ccncc2)[C@@H]2C[C@@H](O)[C@H](n3ccc(=O)[nH]c3=O)O2)[C@H](O)[C@@H]1O	5.34	–
NC[C@H]1O[C@@H](O[C@@H](CNCCc2ccc(Oc3ccccc3)cc2)[C@@H]2C[C@@H](O)[C@H](n3ccc(=O)[nH]c3=O)O2)[C@H](O)[C@@H]1O	6.51	–
CCCCCCCCCCCCN(C)C[C@H](O[C@@H]1O[C@H](CN)[C@@H](O)[C@H]1O)[C@@H]1C[C@@H](O)[C@H](n2ccc(=O)[nH]c2=O)O1	6.64	–
CCCCCN(CCCCC)C[C@H](O[C@@H]1O[C@H](CN)[C@@H](O)[C@H]1O)[C@@H]1C[C@@H](O)[C@H](n2ccc(=O)[nH]c2=O)O1	5.01	–
NC[C@H]1O[C@@H](O[C@@H](CNC(=O)c2ccc(-c3ccccc3)cc2)[C@@H]2C[C@@H](O)[C@H](n3ccc(=O)[nH]c3=O)O2)[C@H](O)[C@@H]1O	6.60	–
NC[C@H]1O[C@@H](O[C@@H](CO)[C@H]2O[C@@H](n3ccc(=O)[nH]c3=O)[C@H](O)[C@@H]2O)[C@H](O)[C@@H]1O	5.30	–
NC[C@H]1O[C@@H](O[C@@H](CNCCc2cccc(C(F)(F)F)c2)[C@@H]2C[C@@H](O)[C@H](n3ccc(=O)[nH]c3=O)O2)[C@H](O)[C@@H]1O	6.66	–
COc1ccc(CNC[C@H](O[C@@H]2O[C@H](CN)[C@@H](O)[C@H]2O)[C@@H]2C[C@@H](O)[C@H](n3ccc(=O)[nH]c3=O)O2)cc1OC	5.40	–
NC[C@H]1O[C@@H](O[C@@H](CNCCc2ccccc2)[C@@H]2C[C@@H](O)[C@H](n3ccc(=O)[nH]c3=O)O2)[C@H](O)[C@@H]1O	5.80	–
NC[C@H]1O[C@@H](O[C@@H](CNC(=O)c2ccc(Oc3ccccc3)cc2)[C@@H]2C[C@@H](O)[C@H](n3ccc(=O)[nH]c3=O)O2)[C@H](O)[C@@H]1O	6.70	–
CC(C)c1ccc(C(=O)NC[C@H](O[C@@H]2O[C@H](CN)[C@@H](O)[C@H]2O)[C@@H]2C[C@@H](O)[C@H](n3ccc(=O)[nH]c3=O)O2)cc1	6.40	–
